Laboratory results reported in a melting point compilation (Tetko et al.; mined from patent text by program, amines drawn as free bases though some values may be those of a salt).

SMILES	melting point
Oc1cc2c(cc1CNc1ccc(F)cc1F)OCC2	119 to 121 °C
CCOC(=O)C(=O)Nc1cccc(N(C)C)c1C(N)=O	133 to 135 °C
CC(=O)c1ccc2c(c1)CCc1ccc(C#N)cc1S2	138 to 141 °C
CC(C)C(S)C(=O)NC1(C(=O)NC(Cc2ccc(-c3ccccc3)s2)C(=O)O)CCCC1 (stereo not drawn)	154 to 155 °C
Cc1cccc(N2CCN(CCCCc3ccc(C(=O)CCC(=O)O)cc3)CC2)c1	199 to 201 °C
O=C(c1cccnc1)N1CCC(c2ccccc2F)=N1	89 to 91 °C
CCCn1c(=O)c2[nH]c(-c3ccc4c(c3)OCCO4)nc2n(CCC)c1=O	280 to 282 °C
CNc1c(Cl)cc2c3c(cccc13)C(=O)N(C1CCN(C)CC1)C2=O	298 to 302 °C
CCCCCCN=C1SC(=CC(=O)O)C(=O)N1CCCCCC	66 to 69 °C
Cc1ccc2c(OS(=O)(=O)C(F)(F)F)cc(=O)oc2c1	95 to 96 °C
CC(=O)COc1ccc(N2N=C3c4cc(F)ccc4CCC3CC2=O)cc1 (stereo not drawn)	195 to 196 °C
Cc1ccc(C=C2C(=O)N(c3cc(F)ccc3F)C(=O)N2C)cc1	136 to 140 °C
COc1ccc(C2=NN(CCCOc3ccccc3)C(=O)[C@H]3CCCC[C@@H]23)cc1OC (relative stereo)	78 to 81 °C
CC(C)(C)c1cc(CC2CCCCC2=O)cc(C(C)(C)C)c1O (stereo not drawn)	79 °C
CS(=O)(=O)Nc1cccc(Nc2nc(N3CCN(c4ccncc4)CC3)c3nc[nH]c3n2)c1	227 to 230 °C
O=C(CN1CCN(c2ccccc2)CC1)N1CCC(C(=O)N2CCC2)(c2cccc(C(F)(F)F)c2)CC1	147 to 149 °C
CCOC(=O)c1c(C(F)F)nc(C(F)(F)F)c(C(=O)OCC)c1Br	37 to 43 °C
O=C1CCC(c2ccc(-c3ccc(Cl)c(Cl)c3)o2)O1 (stereo not drawn)	89 to 90 °C
CCS(=O)(=O)Oc1ccccc1S(N)(=O)=O	90 to 92.5 °C
O=C1Nc2ccc(F)c(F)c2C(=O)N2CC[C@@H]12	> 250 °C
C=C(OC(=O)c1ccc(C(C)(C)C)cc1)c1ccc(OC)cc1	87 to 89 °C
CCCn1c(=O)nc(NNC(C)=O)c2[nH]c(C3CCCC3)nc21	> 270 °C
Cc1ccc(N2C(=O)C(O)=C(C(=O)c3ccc(C(C)C)cc3)C2c2ccc(C(C)C)cc2)nn1 (stereo not drawn)	271 °C
CCN1c2ncc(CC(F)c3ccncc3)cc2C(=O)N(C)c2ccc(Cl)nc21 (stereo not drawn)	180 °C
N#Cc1cccc(-c2cc(-c3ccc(C#N)cc3O[N+](=O)[O-])on2)c1	198 to 199 °C

SMILES	melting point
COc1cc(NC(=O)OC(C)(C)C)c(NC(=O)CC(=O)c2cccc(-n3ccnc3)c2)cc1-c1ccc(F)cc1C	99 to 102 °C
CC1=C(Cn2ccnc2)CCc2ccc(C(=O)O)cc21	278 to 280 °C
CC1(C)CCCNc2ccc([N+](=O)[O-])cc21	99 °C
COc1nc(-c2ccccc2)c2c(n1)N(c1c(F)cccc1F)C(=O)NC2	221 to 224 °C
COC(=O)c1ccc(SC(Cn2ccnc2)c2ccc(Cl)cc2Cl)cc1 (stereo not drawn)	121 to 124 °C
Cc1c(OCc2ccc(F)cc2F)cc(C)n(C2CCCCC2)c1=O	118 to 120 °C
COc1ccc(C2=C(c3ccccc3)CCCc3cc(OCc4ccccc4)ccc32)cc1	163 to 164 °C
CCOC(=O)C(C(N)=O)C12CC3CC(CC(C3)C1)C2 (stereo not drawn)	97 to 98 °C
Cn1c(=O)c(=O)[nH]c2c3ccccc3ccc21	333 °C
CN(C)S(=O)(=O)n1cnc(-c2ccc(Cl)cc2Cl)c1	169 to 171 °C
O=[N+]([O-])c1cn(-c2cncc(F)c2)nc1Cl	110 to 111 °C
COc1ccc(Cl)cc1C1C(=O)Nc2cc(C(F)(F)F)ccc21 (stereo not drawn)	210 to 213 °C
COc1ccc(C(=O)c2cc(OC)c(OC)c(OC)c2)cc1	72 to 73 °C
COc1n[nH]c(=O)n1C	146 °C
O=C(CS(=O)c1cccs1)C12CC3CC(CC(C3)C1)C2 (stereo not drawn)	114 to 116 °C
Cc1c(Cl)ccc2cc(C(F)(F)F)c(C(F)(F)F)nc12	70 to 73 °C
CC(C)(C)c1cc(-c2nn(CCC#N)c3ncccc23)cc(C(C)(C)C)c1O	158 to 160 °C
COc1ccc(Cl)cc1CNc1nc(Cl)nc2c1ncn2[C@@H]1SC[C@@H](O)[C@H]1O	189 to 190 °C
CC(c1ccc2c(c1)C(=O)c1ccccc1C2=O)N1CCNCC1 (stereo not drawn)	97.7 to 98.1 °C
CCCc1nc(S(=O)(=O)Nc2ccccc2Br)nn1-c1ccccc1	119 to 121 °C
CC(C(=O)O)c1ccc(CC2CCCCC2O)c(Cl)c1 (stereo not drawn)	123 to 127 °C
CC(=O)Nc1nc(C)c(CCC(C)c2ccc(Cl)cc2)c(NC(C)=O)n1 (stereo not drawn)	136 to 138 °C
Cc1cc(C)c(S(=O)(=O)n2c(CCC(=O)O)cc3cc(Cl)ccc32)c(C)c1	132 to 134 °C
O=CNc1nc(CSc2ccc([N+](=O)[O-])cc2)cs1	158 to 160 °C
Cn1c(-c2ccc([N+](=O)[O-])cc2)cnc1[C@H](Cc1ccccn1)N(C=O)c1cc2cc(F)ccc2o1	207 to 208 °C

SMILES	melting point
Cn1c2ccc(Cl)cc2c2c3ccccc3c(OCC3CC3)nc21	141 to 142 °C
O=C(c1ccccc1)c1cc([N+](=O)[O-])ccc1NC1CCCCC1	75 °C
CCOc1cc(O)cc2c1C(=O)N(COC(=O)c1c(Cl)cccc1Cl)S2(=O)=O	216 to 217 °C
Cc1ccc(-c2cncnc2N)cc1	166 to 167 °C
Cc1nn(-c2ccc(C(F)(F)F)cn2)cc1COc1cccc(OC(C)(C)C(=O)O)c1	152 to 153 °C
O=C1OCc2c1oc1cccc(F)c1c2=O	224 to 226 °C
CC(C)(C1OCCO1)C(O)(Cn1cncn1)c1ccc(F)cc1 (stereo not drawn)	90 °C
CC(C)(Cc1ccc(Cl)cc1)C(O)(COc1ccc(Cl)cc1)c1cccnc1 (stereo not drawn)	46 to 47 °C
CCCOCCn1c(CN2CCN(C)CC2)nc2ccccc21	73 to 75.5 °C
CC(C)(C)c1ccc(CCN2C(=O)COc3ccc(C=C4SC(=S)NC4=O)cc32)cc1	283 to 285 °C
CC(=O)N(C)c1cc2c(nc(C)n2C)c(O)c1CCC(=O)c1ccccc1	249 to 251 °C
CON(C)C(=O)c1ccc(C(F)(F)F)cc1O	69 to 70 °C
CCC1=C([N+](=O)[O-])C(c2cccc(Cl)c2Cl)c2c[nH]nc2N1 (stereo not drawn)	250 °C
COc1ccccc1C1(CC(=O)O)C(=O)Nc2cc(Cl)c(Cl)cc21 (stereo not drawn)	222 to 224 °C
COCN1C(C)=C(C(=O)OCOC(=O)C(C)(C)C)C(c2ccccc2C(F)(F)F)C(C(=O)OCOC(=O)C(C)(C)C)=C1C	96 to 97 °C
OCc1ccccc1-c1ccccc1CO	98 to 103 °C
CC(C)(C)[Si](C)(C)Oc1cc(Br)c2oc(-c3ccc(O[Si](C)(C)C(C)(C)C)c(F)c3)nc2c1	98 to 99 °C
CCOC(=O)CN1CCC(CNc2ccc(Cl)cc2C(=O)Nc2ccc(Cl)cn2)CC1	61 to 63 °C
Cc1ccc(N2C(=O)C(O)=C(C(=O)c3ccc(C(C)C)cc3)C2c2ccc(C(F)(F)F)cc2)nn1 (stereo not drawn)	252 °C
Fc1ccc(-c2n[nH]cc2-c2ccnc(NC3CC3)n2)cc1	203 to 204 °C
CSc1ccc(C(=O)c2cc(-c3ccc(S(C)(=O)=O)cc3)c(N3CCOCC3)s2)cc1	160 °C
OC1(C2=NCCCN2)c2ccccc2-c2ccccc21	242 to 245 °C
Cc1nc2c(cc1NC(=N)N=C=O)CCCCC2CO[N+](=O)[O-] (stereo not drawn)	120 to 121 °C
O=c1n(CCO)c2cc(Br)c(Br)c(Br)c2n1CCO	201 to 204 °C
CCOc1nn(Cc2ccc(OCn3nnc4ccccc43)cc2)cc1CCC(=O)O	136 to 137 °C

SMILES	melting point
Cc1nc2c([N+](=O)[O-])cc(Br)cc2n1C	193 to 195 °C
CCCCc1nnc(S(=O)Cc2ccc([N+](=O)[O-])cc2)n1Cc1ccc(-c2ccccc2-c2nnn[nH]2)cc1 (stereo not drawn)	222 to 223 °C
Cc1ccc(N=C(NC#N)NCc2ccc3c(c2)CN(C2CCC(=O)NC2=O)C3=O)cc1Cl (stereo not drawn)	325 to 327 °C
O=c1oc2c(c(O)c1C(c1ccccc1)C1CC1)CCCCC2CC1CCCOC1 (stereo not drawn)	82 to 90 °C
CCCCCCC(C)(C)c1cc(OCc2ccccc2)c(C2=C(CC#N)CCC(C)C2)c(OCc2ccccc2)c1 (stereo not drawn)	85 to 86 °C
COc1ccc(C(=C2CCN(CCc3c(C)nc4scc(C)n4c3=O)CC2)c2ccc(F)cc2)cc1	140 °C
O=C1N=NC(Cc2ccc(OCCc3coc(-c4ccccc4)n3)cc2)O1 (stereo not drawn)	142 to 144 °C
O=C(O)CCCc1nc2c(F)c(F)cc(F)c2s1	113 to 114 °C
Nc1c(I)c(C(F)(F)F)nn1-c1c(Cl)cc(C(F)(F)F)cc1Cl	126 °C
O=C(O)Cc1cc([N+](=O)[O-])ccc1Oc1ccc(F)cc1	129 to 130 °C
CC(=O)OCCCCc1c(C)[nH]c(C(=O)OC(C)(C)C)c1C	62 °C
FC(F)(F)CO[Si](c1ccccc1)(c1ccccc1)c1ccccc1	114 °C
COC(=O)c1ccc(C)nc1Oc1nc(OC)cc(OC)n1	99 to 103 °C
N#Cc1ccc(Oc2ccc(CC(=O)OCc3ccccc3)cc2)nc1	96 to 97 °C
Nc1nccc(Oc2ccc3c(C(=O)Nc4cccc(C(F)(F)F)c4)cnn3c2)n1	102 to 104 °C
N#Cc1cc2c3c(cccc3c1N1CCCC1)C(=O)N(O)C2=O	247 to 248 °C
Cc1cccn2c(=O)cc(/C=C/c3ccccc3)nc12	150 to 152 °C
C=CCC(CC)(CC)C(=O)O[C@H]1C[C@H](O)C=C2C=C[C@H](C)[C@H](CC[C@@H]3C[C@@H](O)CC(=O)O3)[C@H]21	107 to 108 °C
CCOc1nn(-c2ccc(C(F)(F)F)cc2)cc1CCCOc1cccc(CC(=O)O)c1	108 to 109 °C
CCCCCCCNC(=O)Nc1c(C(=O)NC2CCN(C(c3ccccc3)c3ccccc3)CC2)cccc1N(C)C	203 °C
CCCCCCCCC#Cc1ccc2nc(C=O)ccc2c1	46.5 to 47.5 °C
CCC(C(C)=CC(CNC(=O)c1ccc2c(c1)CC(=O)N2)=NO)[N+](=O)[O-] (stereo not drawn)	111 to 114 °C
c1cncc(-c2ccc3nncn3c2)c1	200 to 202 °C
